Assay in all cases: colorimetric pNA release, […] nm
What all share (format): biochemical

Experiment [1] addresses T1, TaeMCAII (Triticum aestivum, UniProt D1MBU0, DEL149-214).
T1 construct: gene MCAII; full-length ORF (405 residues, 44 kDa) in pET-28a(+), N-terminal His6 tag, E. coli BL21(DE3)pLysS, Ni-NTA; autoprocessed after Lys148 and Arg214 (66-residue linker removed) into 16 kDa N-terminal and 20 kDa C-terminal subunits
T1 sequence (D1MBU0 1-148): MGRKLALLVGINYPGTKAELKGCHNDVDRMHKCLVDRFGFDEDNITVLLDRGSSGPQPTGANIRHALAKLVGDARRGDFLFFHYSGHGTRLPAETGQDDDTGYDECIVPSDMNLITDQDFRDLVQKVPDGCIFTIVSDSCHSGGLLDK
T1 sequence (D1MBU0 215-405): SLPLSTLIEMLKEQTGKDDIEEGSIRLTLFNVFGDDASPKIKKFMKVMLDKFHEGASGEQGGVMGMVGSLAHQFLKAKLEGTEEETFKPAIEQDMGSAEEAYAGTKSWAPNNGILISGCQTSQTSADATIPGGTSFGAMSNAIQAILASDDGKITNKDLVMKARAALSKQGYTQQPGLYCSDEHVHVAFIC
The settings on record: 50 μM Ac-VRPR-pNa, pH 7.0, 30 mM CaCl2, 10 mM DTT; 1 h preincubation at 30°C; irreversible, covalent.

Experiment [2] addresses T1, TaeMCAII. The settings on record: 50 μM Ac-VRPR-pNa, pH 7.0, 30 mM CaCl2, 10 mM DTT; 1 h preincubation at 30°C; irreversible, covalent. The source holds these as a separate data set.
Experiment [3] concerns the target T1, TaeMCAII. The settings on record: 50 μM Ac-VRPR-pNa, pH 7.0, 30 mM CaCl2, 10 mM DTT; 1 h preincubation at 30°C; competitive.

In the case of `CC(C)C[C@H](NC(=O)[C@@H]1O[C@H]1C(=O)O)C(=O)NCCCCN=C(N)N` [E-64, 1-trans-epoxysuccinylleucylamide-(4-guanido)-butane], on TaeMCAII [1], the “% activity retained at 100 μM” value is 89%.

With `Cc1ccc(S(=O)(=O)N[C@@H](CCCCN)C(=O)CCl)cc1` [TLCK, N^α-tosyl-L-lysine-chloromethyl ketone], the “% decrease of activity at 100 μM” value on TaeMCAII [2] was 43%.

On to `CC(=O)N[C@@H](CC(C)C)C(=O)N[C@@H](CC(C)C)C(=O)N[C@H](C=O)CCCNC(=N)N` [leupeptin], for which the “% decrease of activity at 10 μM” value on TaeMCAII [3] is listed as 88%.
